Data taken from patent US7880007B2, “Bicyclic substituted phenyl piperidine modulators of muscarinic receptors” (Vertex Pharmaceuticals Incorporated, priority 2004, dated 2011).

Key:
Type in all cases: cell-based
M4 muscarinic receptor = biological target: T1, M4 muscarinic receptor (Homo sapiens, UniProt P08173); test: Functional mobilization of intracellular calcium (FLIPR), M4-CHO cells; settings: for M4 Activity: M4-CHO cells, calcium mobilization (FLIPR)
T1 construct: expressed in transfected cells; host or cells: CHO (M4-CHO)
T1 sequence (P08173 1-479): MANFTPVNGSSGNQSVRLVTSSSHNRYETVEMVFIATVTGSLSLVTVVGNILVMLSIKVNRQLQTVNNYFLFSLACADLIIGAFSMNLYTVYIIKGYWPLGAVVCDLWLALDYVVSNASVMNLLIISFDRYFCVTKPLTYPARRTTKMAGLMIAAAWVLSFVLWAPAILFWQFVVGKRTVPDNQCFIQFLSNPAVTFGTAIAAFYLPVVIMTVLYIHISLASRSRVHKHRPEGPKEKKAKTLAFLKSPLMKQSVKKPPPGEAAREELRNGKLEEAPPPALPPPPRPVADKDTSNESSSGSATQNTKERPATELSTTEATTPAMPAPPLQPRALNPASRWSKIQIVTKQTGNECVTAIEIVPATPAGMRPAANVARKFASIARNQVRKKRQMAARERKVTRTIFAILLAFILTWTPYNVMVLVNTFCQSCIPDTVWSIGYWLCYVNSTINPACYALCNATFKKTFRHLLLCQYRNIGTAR
Summary of the method: (§1)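 Calcium mobilisation read by FLIPR over 60 s (ex 488/em 540 nm) in recombinant muscarinic CHO lines loaded with calcium dye plus 1 mM probenecid. Compounds tested as agonists alone, or as inhibitors against EC80 carbachol after 15 min pre-incubation or co-addition; 0.5% DMSO; efficacy scaled to carbachol maximal response.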

M1 muscarinic receptor = biological target: T2, M1 muscarinic receptor (Homo sapiens, UniProt P11229); test: Functional mobilization of intracellular calcium (FLIPR), M1-CHO cells; settings: for M1 Activity: M1-CHO cells, calcium mobilization (FLIPR)
T2 construct: expressed in transfected cells; host or cells: CHO (M1-CHO)
T2 sequence (P11229 1-460): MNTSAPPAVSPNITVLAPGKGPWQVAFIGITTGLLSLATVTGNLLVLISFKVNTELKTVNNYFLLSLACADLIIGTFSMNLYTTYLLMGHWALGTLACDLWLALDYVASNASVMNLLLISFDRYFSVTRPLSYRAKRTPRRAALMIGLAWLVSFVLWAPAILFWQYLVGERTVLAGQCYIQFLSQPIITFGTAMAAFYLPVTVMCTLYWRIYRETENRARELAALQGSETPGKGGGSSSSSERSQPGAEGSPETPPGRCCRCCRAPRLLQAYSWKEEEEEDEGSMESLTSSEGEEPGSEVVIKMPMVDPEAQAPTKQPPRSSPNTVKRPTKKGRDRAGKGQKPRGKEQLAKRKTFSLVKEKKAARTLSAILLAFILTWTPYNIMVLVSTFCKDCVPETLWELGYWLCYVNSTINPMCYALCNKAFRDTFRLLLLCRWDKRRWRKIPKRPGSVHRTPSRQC
Summary of the method: as §1

M2 muscarinic receptor = biological target: T3, M2 muscarinic receptor (Homo sapiens, UniProt P08172); test: Functional mobilization of intracellular calcium (FLIPR), M2-CHO cells; settings: for M2 Activity: M2-CHO cells, calcium mobilization (FLIPR)
T3 construct: expressed in transfected cells; host or cells: CHO (M2-CHO)
T3 sequence (P08172 1-466): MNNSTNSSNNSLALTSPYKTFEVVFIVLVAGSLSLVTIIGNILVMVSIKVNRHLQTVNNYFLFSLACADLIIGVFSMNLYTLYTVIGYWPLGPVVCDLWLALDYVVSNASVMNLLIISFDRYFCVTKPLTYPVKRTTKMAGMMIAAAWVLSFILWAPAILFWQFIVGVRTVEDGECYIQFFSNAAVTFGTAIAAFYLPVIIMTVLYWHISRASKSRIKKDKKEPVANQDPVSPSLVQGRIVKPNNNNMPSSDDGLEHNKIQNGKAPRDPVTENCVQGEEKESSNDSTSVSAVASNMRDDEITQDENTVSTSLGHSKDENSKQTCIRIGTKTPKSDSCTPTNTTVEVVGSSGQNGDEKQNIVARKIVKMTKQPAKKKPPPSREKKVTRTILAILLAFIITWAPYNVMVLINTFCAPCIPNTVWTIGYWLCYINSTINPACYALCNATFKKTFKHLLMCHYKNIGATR
Summary of the method: as §1

M3 muscarinic receptor = biological target: T4, M3 muscarinic receptor (Homo sapiens, UniProt P20309); test: Functional mobilization of intracellular calcium (FLIPR), M3-CHO cells
T4 construct: expressed in transfected cells; host or cells: CHO (M3-CHO)
T4 sequence (P20309 whole entry): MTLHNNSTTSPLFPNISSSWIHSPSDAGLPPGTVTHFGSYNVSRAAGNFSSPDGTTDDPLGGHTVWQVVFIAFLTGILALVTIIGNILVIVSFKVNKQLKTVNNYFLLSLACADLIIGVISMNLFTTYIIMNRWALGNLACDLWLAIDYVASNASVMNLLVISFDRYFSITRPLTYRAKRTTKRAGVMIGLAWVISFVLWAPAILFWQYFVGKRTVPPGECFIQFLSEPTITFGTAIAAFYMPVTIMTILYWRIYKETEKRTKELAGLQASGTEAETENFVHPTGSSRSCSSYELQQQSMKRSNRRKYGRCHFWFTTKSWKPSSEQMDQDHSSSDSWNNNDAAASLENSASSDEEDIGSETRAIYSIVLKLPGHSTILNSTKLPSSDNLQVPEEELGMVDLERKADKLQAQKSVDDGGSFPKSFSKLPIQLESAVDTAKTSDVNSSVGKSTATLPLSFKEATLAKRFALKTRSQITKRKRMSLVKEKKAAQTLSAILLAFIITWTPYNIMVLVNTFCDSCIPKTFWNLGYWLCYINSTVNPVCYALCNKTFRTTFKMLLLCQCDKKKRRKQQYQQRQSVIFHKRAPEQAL
Experimental: Functional Mobilization of Intracellular Calcium to Determine Muscarinic Receptor Activity:
CHO cells expressing muscarinic receptors (M1 to M5) are grown as monolayers in tissue culture flasks at 37° C. in a humidified atmosphere containing 5% CO2 and passaged every 3-5 days. The growth media is Dulbecco's modified eagles medium (DMEM, Gibco Cat #12430-054), containing 25 mM Hepes and supplemented with Fetal Bovine Serum (Hyclone, cat #SH30071.03), 0.1 mM of MEM non-essential amino acids (GIBCO, Cat #11140-050), 1 mM MEM Sodium Pyruvate (GIBCO Cat #11360-070) and 100 units/ml of Penicillin G and 100 μg/ml of Streptomycin (GIBCO Cat #15140-122). The recombinant muscarinic receptor cell lines are grown under antibiotic pressure with media containing 25 μg/ml zeocin and 500 μg/ml G418 (M1-CHO), 4 μg/ml puromycin, 50 μg/ml zeocin and 2.5 μg/ml blasticidin (M2 and M4-CHO) or 50 μg/ml zeocin and 4 μg/ml puromycin (M3 and M5-CHO).
Cells are harvested at 80-90% confluence using Versene (GIBCO Cat #15040-066), collected by centrifugation and seeded 18-24 hrs prior to running the calcium assay at a density of 5,000-10,000 cells/well in […], clear-bottomed 384-well plates (BD Biocoat, poly-D-lysine, Cat #356663). The day of the experiment, the cells are washed with a plate washer (Bioteck Instruments, ELX 405) using bath 1 buffer (140-mM NaCl, 4.5-mM KCl, 2-mM CaCl2, 1-mM MgCl2, 10-mM Hepes-Na, 10-mM Glucose, pH 7.4, with NaOH) containing 1 mM Probenecid. Next, the calcium dye Fluo-3 (25 μl/well of Fluo-3 AM at 4 μM, Molecular Probes F-1241, in Bath 1 buffer containing 1 mM Probenecid) is added to the 25 μl of Bath 1 remaining in each well after the plate wash and the dye is loaded at 37° C. in the tissue culture incubator for 60-90 min. The fluorescent dye is removed using the plate washer with Bath 1 containing 1 mM Probenecid, leaving 25 μl/well of this solution after the wash. Alternatively, cells can be loaded with the calcium indicator from Molecular Devices (Calcium 3 Assay Reagents, Cat #R7181) adding 5 μl of a 5× solution dye in Bath 1 containing 1 mM Probenecid (10 ml per dye flask cat #R7182 to generate a solution 20×) to 20 μl of the same buffer. After loading for 60 min, the experiment can be run without having to remove the dye.
Compounds are prepared at a 2× fold concentration in a 96-well plate (round bottom, Costar Corning cat #3656), by reconstituting the pre-spotted compounds in bath 1 containing 1 mM probenecid. The final concentration DMSO is 0.5%, and the amount of DMSO is normalized across the assay plate. To determine an agonist action of the compounds on muscarinic receptors, the reconstituted compounds are added (25 μl compound/well) to the cell assay plate (containing 25 μl/well) using the multi-channel robotic system of the FLIPR 3 Instrument (Molecular Devices, Sunnyvale, Calif.). To determine a functional inhibitory action of the compounds on muscarinic receptors, the reconstituted compounds are added (25 μl compound/well) to the assay plate and pre-incubated for 15 min prior to adding 25 μl of Carbachol at 3× the EC80 for each muscarinic subtype. Alternatively, the compounds can be co-applied simultaneously with the agonist. In both assay modes, the fluorescence is recorded for 60 sec (excitation wavelength is […] and emission wavelength 540 nm) using the FLIPR 3 instrument.
The potency, efficacy and selectivity of the muscarinic compounds were evaluated by screening the compound activity across the whole family (M1 to M5 cells). Compounds were also screened for activity on other proteins such as other GPCRs and ion channels to determine selectivity on M4 receptors.
Examples of activities and efficacies of the muscarinic compounds of formulae (I, Ia, Ib, and II) on modulating M1, M2, M3 and M4 receptors are shown below in Table 3. […]

[1] = 100% efficacy = maximum response obtained with the Carbachol control
[2] = 100% efficacy is the maximum response obtained with the Carbachol control

| SMILES | Emax (M4 muscarinic receptor; [1]) | M4 Activity (M4 muscarinic receptor) | Emax (M1 muscarinic receptor; [1]) | M1 Activity (M1 muscarinic receptor) | Emax (M2 muscarinic receptor; [1]) | M2 Activity (M2 muscarinic receptor) | Emax (M3 muscarinic receptor; [1]) | M3 Activity (M3 muscarinic receptor; M3-CHO cells, calcium mobilization (FLIPR)) | Emax (M4 muscarinic receptor; [2]) | Emax (M1 muscarinic receptor; [2]) | Emax (M2 muscarinic receptor; [2]) |
| --- | --- | --- | --- | --- | --- | --- | --- | --- | --- | --- | --- |
| Fc1ccccc1-c1ccccc1C1CCN(C2CC3CC[C@H]2C3)CC1 (stereo in doubt) [Compound 10, 1-((1S,2R,4R)-bicyclo[2.2.1]heptan-2-yl)-4-(2′-fluorobiphenyl-2-yl)piperidine] | 25 to 100% | ++ (activity was measured to be from 1.0 μM to 5.0 μM) | < 25% | + (activity was measured to be greater than 5.0 μM) | 25 to 100% | + (activity was measured to be greater than 5.0 μM) | < 25% | + (activity was measured to be greater than 5.0 μM) | – | – | – |
| COc1ccc(Cl)cc1C1(O)CCN(C[C@@H]2C[C@H]3C=C[C@H]2C3)CC1 [Compound 319] | 25 to 100% | ++ (activity was measured to be from 1.0 μM to 5.0 μM) | < 25% | + (activity was measured to be greater than 5.0 μM) | < 25% | + (activity was measured to be greater than 5.0 μM) | – | – | – | – | – |
| CCCC1CCC(N2CCC(C#N)(c3ccccc3OC)CC2)CC1 (centres unmarked) [Compound 335] | 25 to 100% | ++ (activity was measured to be from 1.0 μM to 5.0 μM) | 25 to 100% | ++ (activity was measured to be from 1.0 μM to 5.0 μM) | < 25% | + (activity was measured to be greater than 5.0 μM) | – | – | – | – | – |
| CCOC(=O)N1[C@@H]2CC[C@@H]1CC(N1CCC(c3cc(NC(C)=O)ccc3OC)CC1)C2 (some centres unmarked) [Compound 338] | 25 to 100% | – | 25 to 100% | – | < 25% | – | – | – | – | – | – |
| COc1ccc(OC)c(C2CCN(CC3C[C@H]4CC[C@H]3C4)CC2)c1 (some centres unmarked) [Compound 344] | 25 to 100% | ++ (activity was measured to be from 1.0 μM to 5.0 μM) | < 25% | + (activity was measured to be greater than 5.0 μM) | < 25% | + (activity was measured to be greater than 5.0 μM) | – | – | – | – | – |
| COc1ccccc1C1(C#N)CCN(C2CCCCC2)CC1 [Compound 348] | 25 to 100% | ++ (activity was measured to be from 1.0 μM to 5.0 μM) | 25 to 100% | + (activity was measured to be greater than 5.0 μM) | < 25% | + (activity was measured to be greater than 5.0 μM) | – | – | – | – | – |
| COc1ccccc1C1(C#N)CCN(C[C@@H]2C[C@H]3C=C[C@H]2C3)CC1 [Compound 359] | 25 to 100% | +++ (activity was measured to be less than 1.0 μM) | 25 to 100% | ++ (activity was measured to be from 1.0 μM to 5.0 μM) | 25 to 100% | ++ (activity was measured to be from 1.0 μM to 5.0 μM) | – | – | – | – | – |
| COc1ccccc1C1(C#N)CCN(C2CCOCC2)CC1 [Compound 379] | – | + (activity was measured to be greater than 5.0 μM) | – | + (activity was measured to be greater than 5.0 μM) | – | + (activity was measured to be greater than 5.0 μM) | – | – | < 25% | < 25% | < 25% |
| COc1ccc(Cl)cc1C1(O)CCN(C2CCCCCC2)CC1 [Compound 380] | – | ++ (activity was measured to be from 1.0 μM to 5.0 μM) | – | + (activity was measured to be greater than 5.0 μM) | – | + (activity was measured to be greater than 5.0 μM) | – | – | 25 to 100% | < 25% | < 25% |
| Cc1ccc(F)cc1C1CCN(C2C[C@H]3CC[C@H](C2)C3)CC1 (some centres unmarked) [Compound 385] | – | +++ (activity was measured to be less than 1.0 μM) | – | ++ (activity was measured to be from 1.0 μM to 5.0 μM) | – | + (activity was measured to be greater than 5.0 μM) | – | – | 25 to 100% | 25 to 100% | < 25% |
| COc1ccc(F)cc1C1CCN(C2CCC3CCC2C3)CC1 (centres unmarked) [Compound 412] | – | +++ (activity was measured to be less than 1.0 μM) | – | +++ (activity was measured to be less than 1.0 μM) | – | ++ (activity was measured to be from 1.0 μM to 5.0 μM) | – | – | 25 to 100% | 25 to 100% | < 25% |
| COc1ccccc1C1(C#N)CCN(C2CC3CCC(C3)C2)CC1 (centres unmarked) [Compound 421] | – | +++ (activity was measured to be less than 1.0 μM) | – | ++ (activity was measured to be from 1.0 μM to 5.0 μM) | – | ++ (activity was measured to be from 1.0 μM to 5.0 μM) | – | – | 25 to 100% | 25 to 100% | < 25% |
